Measurements: PubChem BioAssay (NCI)
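How tested: cells in 96-well plates exposed to compound for 48 hours at five concentrations. GI50 is the concentration that inhibits growth by half. Definition used: TGI = concentration required for complete inhibition of growth.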

Experiments:
Assay in all cases: NCI tumour cell line growth inhibition, 48 h
[1] = system: SN12C renal
[2] = system: SR leukemia
[3] = system: NCI/ADR-RES ovarian
[4] = system: HS 578T breast
[5] = system: NCI-H23 lung
[6] = system: HCC-2998 colon
[7] = system: K-562 leukemia
[8] = system: OVCAR-4 ovarian
[9] = system: SK-MEL-2 melanoma
[10] = system: A498 renal
[11] = system: KM12 colon
[12] = system: A549 NSCLC
[13] = system: UACC-62 melanoma
[14] = system: SNB-19 CNS
[15] = system: DU-145 prostate
[16] = system: MOLT-4 leukemia
[17] = system: 786-0 renal
[18] = system: LOX IMVI melanoma
[19] = system: SK-OV-3 ovarian
[20] = system: EKVX NSCLC
[21] = system: M14 melanoma
[22] = system: SF-539 CNS
[23] = system: NCI-H460 lung
[24] = system: PC-3 prostate
[25] = system: SF-295 CNS
[26] = system: SK-MEL-28 melanoma
[27] = system: HT29 colon
[28] = system: IGROV1 ovarian
[29] = system: NCI-H226 lung
[30] = system: HOP-92 NSCLC
[31] = system: UACC-257 melanoma
[32] = system: ACHN renal
[33] = system: COLO 205 colon
[34] = system: OVCAR-5 ovarian
[35] = system: SW-620 colon
[36] = system: T-47D breast
[37] = system: OVCAR-3 ovarian
[38] = system: HCT-116 colon
[39] = system: U251 CNS
[40] = system: CCRF-CEM leukemia
[41] = system: HOP-62 NSCLC
[42] = system: HCT-15 colon
[43] = system: RXF 393 renal
[44] = system: MDA-MB-435
[45] = system: TK-10 renal
[46] = system: NCI-H522 lung
[47] = system: OVCAR-8 ovarian
[48] = system: SNB-75 CNS
[49] = system: UO-31 renal
[50] = system: RPMI-8226 leukemia
[51] = system: MCF7 breast
[52] = system: CAKI-1 renal
[53] = system: SK-MEL-5 melanoma
[54] = system: MDA-MB-231 breast
[55] = system: HL-60(TB) leukemia
[56] = system: MALME-3M melanoma
[57] = system: BT-549 breast
[58] = system: SF-268 CNS

N#CC1(c2ccc(NC(=O)c3cccnc3NCc3ccncc3)cc2)CCCC1
GI50 [1]: 18 µM
TGI [1]: > 100 µM
GI50 [2]: 13 µM
TGI [2]: 39.5 µM
GI50 [3]: 12.9 µM
TGI [3]: 62.5 µM
GI50 [4]: 9.86 µM
TGI [4]: 50.2 µM
GI50 [5]: 12.8 µM
TGI [5]: 41.8 µM
GI50 [6]: 25.8 µM
TGI [6]: > 100 µM
GI50 [7]: 5.79 µM
TGI [7]: > 51 µM
GI50 [8]: 13.2 µM
TGI [8]: 98.5 µM
GI50 [9]: 11.9 µM
TGI [9]: 32 µM
GI50 [10]: 10.2 µM
TGI [10]: 60.9 µM
GI50 [11]: 23 µM
TGI [11]: 73 µM
GI50 [12]: 17.3 µM
TGI [12]: > 79.7 µM
GI50 [13]: 8.02 µM
TGI [13]: 23.9 µM
GI50 [14]: 27.7 µM
TGI [14]: > 100 µM
GI50 [15]: 18.8 µM
TGI [15]: > 100 µM
GI50 [16]: 6.26 µM
TGI [16]: 31.9 µM
GI50 [17]: 14.5 µM
TGI [17]: 49.6 µM
GI50 [18]: 14.3 µM
TGI [18]: 29.2 µM
GI50 [19]: 21.7 µM
TGI [19]: > 84.1 µM
GI50 [20]: 11.8 µM
TGI [20]: > 100 µM
GI50 [21]: 16.1 µM
TGI [21]: > 67.1 µM
GI50 [22]: 3.37 µM
TGI [22]: 29.9 µM
GI50 [23]: 14.1 µM
TGI [23]: 54.3 µM
GI50 [24]: 15.5 µM
TGI [24]: > 64.3 µM
GI50 [25]: 9.38 µM
TGI [25]: 27.3 µM
GI50 [26]: 17.3 µM
TGI [26]: > 89.8 µM
GI50 [27]: 9.96 µM
TGI [27]: > 56.2 µM
GI50 [28]: 20.5 µM
TGI [28]: > 89.8 µM
GI50 [29]: 12.3 µM
TGI [29]: 75.1 µM
GI50 [30]: 19.3 µM
TGI [30]: > 100 µM
GI50 [31]: 17.7 µM
TGI [31]: > 68.9 µM
GI50 [32]: 12.4 µM
TGI [32]: > 70.9 µM
GI50 [33]: 7.43 µM
TGI [33]: 33.5 µM
GI50 [34]: 22.5 µM
TGI [34]: > 91.8 µM
GI50 [35]: 24.2 µM
TGI [35]: 72.1 µM
GI50 [36]: 4.15 µM
TGI [36]: 49.7 µM
GI50 [37]: 14.8 µM
TGI [37]: 70 µM
GI50 [38]: 12.1 µM
TGI [38]: 32 µM
GI50 [39]: 12 µM
TGI [39]: 25.8 µM
GI50 [40]: 12.9 µM
TGI [40]: > 95 µM
GI50 [41]: 22.4 µM
TGI [41]: 84.9 µM
GI50 [42]: 8.12 µM
TGI [42]: 39.3 µM
GI50 [43]: 2.81 µM
TGI [43]: 12.3 µM
GI50 [44]: 13.4 µM
TGI [44]: 37.4 µM
GI50 [45]: 23.5 µM
TGI [45]: > 74.3 µM
GI50 [46]: 7.6 µM
TGI [46]: 35.1 µM
GI50 [47]: 21.1 µM
TGI [47]: > 83.3 µM
GI50 [48]: 8.08 µM
TGI [48]: 56.7 µM
GI50 [49]: 12.6 µM
TGI [49]: 60.7 µM
GI50 [50]: 6.73 µM
TGI [50]: 31.4 µM
GI50 [51]: 10.6 µM
TGI [51]: 49.5 µM
GI50 [52]: 16.8 µM
TGI [52]: > 85.9 µM
GI50 [53]: 4.96 µM
TGI [53]: 18 µM
GI50 [54]: 11.3 µM
TGI [54]: 52.8 µM
GI50 [55]: 11.9 µM
TGI [55]: 45.9 µM
GI50 [56]: 12.1 µM
TGI [56]: 50.1 µM
GI50 [57]: 10.2 µM
TGI [57]: 61 µM
GI50 [58]: 27 µM
TGI [58]: > 100 µM

CN(C)CCCC1(c2ccc(F)cc2)OCc2cc(-c3cccc4[nH]ccc34)ccc21 (configuration not stated)
GI50 [1]: 1.55 µM
TGI [1]: 2.96 µM
GI50 [2]: 0.973 µM
TGI [2]: 2.97 µM
GI50 [3]: 1.72 µM
TGI [3]: 3.38 µM
GI50 [4]: 2.12 µM
TGI [4]: 5.03 µM
GI50 [5]: 1.83 µM
TGI [5]: 3.62 µM
GI50 [6]: 1.54 µM
TGI [6]: 2.94 µM
GI50 [7]: 1.4 µM
TGI [7]: 3.32 µM
GI50 [8]: 1.97 µM
TGI [8]: 4.51 µM
GI50 [9]: 1.79 µM
TGI [9]: 3.59 µM
GI50 [10]: 1.56 µM
TGI [10]: 2.96 µM
GI50 [11]: 1.74 µM
TGI [11]: 3.27 µM
GI50 [12]: 1.6 µM
TGI [12]: 3.07 µM
GI50 [13]: 1.76 µM
TGI [13]: 3.23 µM
GI50 [14]: 1.74 µM
TGI [14]: 3.26 µM
GI50 [15]: 1.77 µM
TGI [15]: 3.23 µM
GI50 [16]: 1.49 µM
TGI [16]: 3.22 µM
GI50 [17]: 1.63 µM
TGI [17]: 3.24 µM
GI50 [18]: 1.71 µM
TGI [18]: 3.2 µM
GI50 [19]: 1.75 µM
TGI [19]: 3.25 µM
GI50 [20]: 1.78 µM
TGI [20]: 3.3 µM
GI50 [21]: 1.66 µM
TGI [21]: 3.33 µM
GI50 [22]: 1.67 µM
TGI [22]: 3.12 µM
GI50 [23]: 1.89 µM
TGI [23]: 3.63 µM
GI50 [24]: 1.58 µM
TGI [24]: 3.31 µM
GI50 [25]: 1.84 µM
TGI [25]: 3.44 µM
GI50 [26]: 1.83 µM
TGI [26]: 3.27 µM
GI50 [27]: 1.6 µM
TGI [27]: 3.39 µM
GI50 [28]: 1.33 µM
TGI [28]: 2.73 µM
GI50 [29]: 1.76 µM
TGI [29]: 3.52 µM
GI50 [30]: 1.25 µM
TGI [30]: 2.81 µM
GI50 [31]: 1.7 µM
TGI [31]: 3.18 µM
GI50 [32]: 1.68 µM
TGI [32]: 3.04 µM
GI50 [33]: 1.47 µM
TGI [33]: 2.88 µM
GI50 [34]: 1.71 µM
TGI [34]: 3.27 µM
GI50 [35]: 1.77 µM
TGI [35]: 3.54 µM
GI50 [36]: 1.75 µM
TGI [36]: 3.78 µM
GI50 [37]: 1.79 µM
TGI [37]: 3.35 µM
GI50 [38]: 1.37 µM
TGI [38]: 2.82 µM
GI50 [39]: 1.52 µM
TGI [39]: 2.89 µM
GI50 [40]: 1.65 µM
TGI [40]: 3.95 µM
GI50 [41]: 1.5 µM
TGI [41]: 2.89 µM
GI50 [42]: 1.83 µM
TGI [42]: 3.42 µM
GI50 [43]: 1.46 µM
TGI [43]: 2.88 µM
GI50 [44]: 1.76 µM
TGI [44]: 3.31 µM
GI50 [45]: 1.7 µM
TGI [45]: 3.2 µM
GI50 [46]: 1.59 µM
TGI [46]: 3.22 µM
GI50 [47]: 1.86 µM
TGI [47]: 3.7 µM
GI50 [48]: 1.27 µM
TGI [48]: 3.37 µM
GI50 [49]: 1.35 µM
TGI [49]: 2.63 µM
GI50 [50]: 1.77 µM
TGI [50]: 4.12 µM
GI50 [51]: 1.55 µM
TGI [51]: 3.25 µM
GI50 [52]: 1.41 µM
TGI [52]: 2.77 µM
GI50 [53]: 1.75 µM
TGI [53]: 3.17 µM
GI50 [54]: 1.49 µM
TGI [54]: 2.9 µM
GI50 [55]: 1.81 µM
TGI [55]: 3.59 µM
GI50 [56]: 1.56 µM
TGI [56]: 3.01 µM
GI50 [57]: 1.87 µM
TGI [57]: 3.54 µM
GI50 [58]: 1.58 µM
TGI [58]: 3.03 µM
